Test results published in US9096591B2, “Tetracyclic compounds” (Medivation Technologies, Inc., priority 2007, dated 2015).

Key:
Conditions in all cases: percent inhibition of specific binding
[1] = molecular target: T1, human recombinant adrenergic α1D receptor (Homo sapiens, UniProt P25100); test: Adrenergic α1D radioligand binding ([3H]Prozosin); set-up: Inhibition of ligand binding, Adren. alpha1D: concentration or dose not given beside the values
T1 construct: expressed in transfected cells; host or cells: HEK-293 cells
T1 sequence (P25100 1-572): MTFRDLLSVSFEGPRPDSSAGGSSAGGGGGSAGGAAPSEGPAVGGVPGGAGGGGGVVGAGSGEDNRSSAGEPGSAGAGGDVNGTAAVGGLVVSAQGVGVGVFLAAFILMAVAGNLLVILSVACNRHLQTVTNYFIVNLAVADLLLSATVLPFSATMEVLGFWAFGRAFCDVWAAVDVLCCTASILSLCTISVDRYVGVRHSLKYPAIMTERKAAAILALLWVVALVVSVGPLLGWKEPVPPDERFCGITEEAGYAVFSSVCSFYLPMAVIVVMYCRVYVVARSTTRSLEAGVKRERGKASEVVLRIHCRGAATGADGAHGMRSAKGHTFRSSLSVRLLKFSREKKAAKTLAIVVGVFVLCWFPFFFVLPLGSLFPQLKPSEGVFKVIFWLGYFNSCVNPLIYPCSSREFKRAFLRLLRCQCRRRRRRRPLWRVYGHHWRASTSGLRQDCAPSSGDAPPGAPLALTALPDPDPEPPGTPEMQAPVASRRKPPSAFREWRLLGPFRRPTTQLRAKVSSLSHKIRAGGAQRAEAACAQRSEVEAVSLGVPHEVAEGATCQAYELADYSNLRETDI
Protocol: Compounds of invention were incubated with 0.6 nM [^3H]Prozosin for 60 minutes at 25° C. Non-specific binding was estimated in the presence of 10 μM phentolamine. Receptor proteins were filtered and washed, the filters were then counted to determine [^3H]Prozosin specifically bound. […] Biochemical assay results are presented as the percent inhibition of specific binding in Table 6.

[2] = molecular target: T2, human recombinant adrenergic α2A receptor (Homo sapiens, UniProt P08913); test: Adrenergic α2A radioligand binding ([3H]MK-912); set-up: Inhibition of ligand binding, Adren. alpha2A: concentration or dose not given beside the values
T2 construct: expressed in transfected cells; host or cells: insect Sf9 cells
T2 sequence (P08913 1-465): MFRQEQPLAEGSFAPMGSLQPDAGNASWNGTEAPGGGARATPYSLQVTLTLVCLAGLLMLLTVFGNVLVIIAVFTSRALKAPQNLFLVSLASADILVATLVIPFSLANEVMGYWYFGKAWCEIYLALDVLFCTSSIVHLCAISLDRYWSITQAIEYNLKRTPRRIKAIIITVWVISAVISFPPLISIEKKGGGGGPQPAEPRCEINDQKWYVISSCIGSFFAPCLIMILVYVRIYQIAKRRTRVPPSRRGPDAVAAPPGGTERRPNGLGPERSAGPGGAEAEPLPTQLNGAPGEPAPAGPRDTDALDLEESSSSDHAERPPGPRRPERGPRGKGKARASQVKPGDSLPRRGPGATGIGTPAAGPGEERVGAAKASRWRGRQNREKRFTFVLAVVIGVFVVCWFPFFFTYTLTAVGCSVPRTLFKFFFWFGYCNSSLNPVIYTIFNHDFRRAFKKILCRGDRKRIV
In short: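 Membranes from Sf9 cells expressing the receptor were incubated with 1 nM [3H]MK-912 for 60 minutes at 25° C in 50 mM Tris-HCl pH 7.4, 12.5 mM MgCl2, 2 mM EDTA. 10 μM WB-4101 defined non-specific binding. Values are percent inhibition of specific bound radioactivity after filtration.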

[3] = molecular target: T3, human recombinant serotonin (5-Hydroxytryptamine) 5-HT6 receptor (Homo sapiens, UniProt P50406); test: Serotonin 5-HT6 radioligand binding ([3H]LSD); set-up: Inhibition of ligand binding, Ser. 5-HT6: concentration or dose not given beside the values
T3 construct: expressed in transfected cells; host or cells: human HeLa cells
From the text: Receptor proteins were filtered and washed, the filters were then counted to determine [3H]LSD specifically bound. […] Biochemical assay results are presented as the percent inhibition of specific binding in Table 6.

[4] = molecular target: T4, Serotonin (5-Hydroxytryptamine) 5-HT7 (Homo sapiens, UniProt P34969); test: Serotonin 5-HT7 radioligand binding ([3H]LSD); set-up: Inhibition of ligand binding, Ser. 5-HT7: concentration or dose not given beside the values
T4 construct: expressed in transfected cells; host or cells: CHO cells
Protocol: Lysergic acid diethylamide (LSD) for 2 hours at 25° C. […] Receptor proteins were filtered and washed, the filters were then counted to determine [^3H]LSD specifically bound. […] Biochemical assay results are presented as the percent inhibition of specific binding in Table 6.

T4 sequence (P34969 whole entry): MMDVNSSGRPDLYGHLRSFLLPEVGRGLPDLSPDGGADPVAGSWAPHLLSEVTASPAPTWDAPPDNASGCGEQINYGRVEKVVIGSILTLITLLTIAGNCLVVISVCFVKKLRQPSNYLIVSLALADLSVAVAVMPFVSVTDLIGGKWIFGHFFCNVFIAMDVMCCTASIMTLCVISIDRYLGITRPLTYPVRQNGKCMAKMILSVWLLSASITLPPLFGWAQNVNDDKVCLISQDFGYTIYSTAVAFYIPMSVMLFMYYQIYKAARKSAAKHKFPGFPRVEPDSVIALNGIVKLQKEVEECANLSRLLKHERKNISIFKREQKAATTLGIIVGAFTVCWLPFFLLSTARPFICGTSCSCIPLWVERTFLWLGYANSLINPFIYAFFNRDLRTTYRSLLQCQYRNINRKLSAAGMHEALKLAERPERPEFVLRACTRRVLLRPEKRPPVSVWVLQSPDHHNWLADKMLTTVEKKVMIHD
T3 sequence (P50406 whole entry): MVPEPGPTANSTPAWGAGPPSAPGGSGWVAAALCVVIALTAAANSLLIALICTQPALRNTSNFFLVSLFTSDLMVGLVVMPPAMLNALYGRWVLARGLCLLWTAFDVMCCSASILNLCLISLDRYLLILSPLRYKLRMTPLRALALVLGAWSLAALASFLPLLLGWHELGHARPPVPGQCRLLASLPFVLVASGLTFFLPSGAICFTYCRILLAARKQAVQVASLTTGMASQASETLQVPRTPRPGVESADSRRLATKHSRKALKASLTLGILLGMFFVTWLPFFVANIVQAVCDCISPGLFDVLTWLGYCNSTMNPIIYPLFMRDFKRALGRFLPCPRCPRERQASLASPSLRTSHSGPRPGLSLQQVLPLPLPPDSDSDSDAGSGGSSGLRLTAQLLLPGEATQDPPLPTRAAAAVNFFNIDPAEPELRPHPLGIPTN

Row | Structure (SMILES) | Inhibition of ligand binding, Adren. alpha1D [1] [%] | Inhibition of ligand binding, Adren. alpha2A [2] [%] | Inhibition of ligand binding, Ser. 5-HT6 [3] [%] | Inhibition of ligand binding, Ser. 5-HT7 [4] [%]
1 | CN1CCc2c(c3ccccc3n2CCc2ccccc2)C1 [Compound 2, 2,3,4,5-tetrahydro-2-methyl-5-phenethyl-1H-pyrido[4,3-b]indole] | 72 | 94 | 95 | 100
2 | Cc1ccc2c(c1)c1c(n2CCc2ccc(C)nc2)CCN(C2CC2)C1 [Compound 51] | 22 | 26 | 6 | 17
3 | Cc1ccc(CCn2c3c(c4cc(C(F)(F)F)ccc42)CN(C)CC3)cn1 [Compound 53] | 13 | 18 | 18 | 49
4 | CN1CCc2c(c3cc(C(F)(F)F)ccc3n2CCc2ccccc2)C1 [Compound 80, 8-(trifluoromethyl)-2,3,4,5-tetrahydro-2-methyl-5-phenethyl-1H-pyrido[4,3-b]indole] | 75 | 98 | 101 | 92
5 | CN1CCc2c(c3c(Cl)cccc3n2CCc2ccccc2)C1 [Compound 81] | 47 | 96 | 86 | 89
6 | CN1CCc2c(c3ccc(Cl)cc3n2CCc2ccccc2)C1 [Compound 82] | 64 | 99 | 103 | 100
7 | CN1CCc2c(c3cc(Cl)ccc3n2CCC2CCCCC2)C1 [Compound 164, 8-chloro-5-(2-cyclohexylethyl)-2,3,4,5-tetrahydro-2-methyl-1H-pyrido[4,3-b]indole] | 32 | 95 | 99 | 92
8 | Cc1cccc2c3c(n(CCc4ccc(C(F)(F)F)nc4)c12)CCN(C)C3 [Compound 380, 5-(2-(6-(trifluoromethyl)pyridin-3-yl)ethyl)-2,3,4,5-tetrahydro-2,6-dimethyl-1H-pyrido[4,3-b]indole] | 73 | 78 | 39 | 
9 | Cc1ccc2c(c1)c1c(n2CCc2cncnc2)CCN(C)C1 [Compound 387, 2,8-Dimethyl-5-(2-pyrimidin-5-yl-ethyl)-2,3,4,5-tetrahydro-1H-pyrido[4,3-b]indole] | 47 | 12 | 79 | 
10 | Cc1ccc(CCn2c3c(c4cc(C(C)C)ccc42)CN(C)CC3)cn1 [Compound 392, 8-Isopropyl-2-methyl-5-[2-(6-methyl-pyridin-3-yl)-ethyl]-2,3,4,5-tetrahydro-1H-pyrido[4,3-b]indole] | 88 | 89 | 61 | 
11 | Cc1ccc2c(c1)c1c(n2CC(=O)N2Cc3ccccc3C2)CCN(C)C1 [Compound 397, 2-(1,2,3,4-tetrahydro-2,8-dimethylpyrido[4,3-b]indol-5-yl)-1-(isoindolin-2-yl)ethanone] | 19 | 16 | −9 | 
12 | Cc1ccc2c(c1)c1c(n2CC(=O)N2CCc3ccccc3C2)CCN(C)C1 [Compound 398, 2-(1,2,3,4-tetrahydro-2,8-dimethylpyrido[4,3-b]indol-5-yl)-1-(3,4-dihydroisoquinolin-2(1H)-yl)ethanone] | 17 | 23 | 15 | 
13 | Cc1ccc2c(c1)c1c(n2CC(=O)N2CCSCC2)CCN(C)C1 [Compound 399, 2-(1,2,3,4-tetrahydro-2,8-dimethylpyrido[4,3-b]indol-5-yl)-1-thiomorpholinoethanone] | 6 | 16 | −5 | 
14 | Cc1ccc2c(c1)c1c(n2CC(=O)N2CCCC(C)C2)CCN(C)C1 (stereo not shown) [Compound 401, 2-(1,2,3,4-tetrahydro-2,8-dimethylpyrido[4,3-b]indol-5-yl)-1-(3-methylpiperidin-1-yl)ethanone] | 1 | 3 | 1 | 
15 | Cc1ccc(CCn2c3c(c4cc(Cl)ccc42)CN(c2cccc(C(F)(F)F)c2)CC3)cn1 [Compound 403, 8-Chloro-5-[2-(6-methyl-pyridin-3-yl)-ethyl]-2-(3-trifluoromethyl-phenyl)-2,3,4,5-tetrahydro-1H-pyrido[4,3-b]indole] | 19 | 30 | 0 | 
16 | CN1CCN(CCn2c3c(c4cc(Cl)ccc42)CN(C)CC3)CC1 [Compound 417, 8-chloro-2,3,4,5-tetrahydro-2-methyl-5-(2-(4-methylpiperazin-1-yl)ethyl)-1H-pyrido[4,3-b]indole] | 1 | 28 | 5 | 
17 | CN1CCc2c(c3cc(Cl)ccc3n2CCc2cncnc2)C1 [Compound 424, 8-Chloro-2-methyl-5-(2-pyrimidin-5-yl-ethyl)-2,3,4,5-tetrahydro-1H-pyrido[4,3-b]indole] | 57 | 28 | 82 | 
18 | Cc1ccc2c(c1)c1c(n2CCc2cncc(C(F)(F)F)c2)CCN(C)C1 [Compound 425, 5-(2-(5-(trifluoromethyl)pyridin-3-yl)ethyl)-2,3,4,5-tetrahydro-2,8-dimethyl-1H-pyrido[4,3-b]indole] | 65 | 49 | 64 | 
19 | CN1CCc2c(c3cc(Cl)ccc3n2CCc2cncc(C(F)(F)F)c2)C1 [Compound 426, 8-chloro-5-(2-(5-(trifluoromethyl)pyridin-3-yl)ethyl)-2,3,4,5-tetrahydro-2-methyl-1H-pyrido[4,3-b]indole] | 69 | 42 | 65 | 
20 | Cc1cncc(CCn2c3c(c4cc(C)ccc42)CN(C)CC3)c1 [Compound 429, 2,3,4,5-tetrahydro-2,8-dimethyl-5-(2-(5-methylpyridin-3-yl)ethyl)-1H-pyrido[4,3-b]indole] | 69 | 67 | 79 | 
21 | Cc1ccc2c(c1)c1c(n2CC(=O)N2CCN(C)CC2)CCN(C)C1 [Compound 459, 2-(1,2,3,4-tetrahydro-2,8-dimethylpyrido[4,3-b]indol-5-yl)-1-(4-methylpiperazin-1-yl)ethanone] | 0 | −9 | −10 | 
